{"source": "PubChem BioAssay AID2060624", "about": "(Molecular Pharmacology Branch, DTP, NCI, 2025)", "system": "217524-143-R1-J4-PDC spheroids with HUVEC/MSC, viability", "experiment": "Anticancer human tumor 217524-143-R1-J4-PDC patient-derived pancreatic carcinoma cell line growth inhibition [CLK]", "conditions": "for IC50: curve of first compound; for viability, T/C: stronger effect = lower value", "summary_of_the_method": "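Multi-cell-type spheroids combined patient-derived tumor cells with HUVEC endothelial cells and human mesenchymal stem cells. Paired agents were dosed in half-log steps down from about clinical Cmax, or from 10 microM where Cmax was unknown.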", "key": {"[1]": {"conditions": "second compound 0.0316 µM, first compound 0.00316 µM"}, "[2]": {"conditions": "second compound 0.0316 µM, first compound 0.01 µM"}, "[3]": {"conditions": "second compound 0.0316 µM, first compound 0.0316 µM"}, "[4]": {"conditions": "second compound 0.0316 µM, first compound 0.1 µM"}, "[5]": {"conditions": "second compound 0.1 µM, first compound 0.00316 µM"}, "[6]": {"conditions": "second compound 0.1 µM, first compound 0.01 µM"}, "[7]": {"conditions": "second compound 0.1 µM, first compound 0.0316 µM"}, "[8]": {"conditions": "second compound 0.1 µM, first compound 0.1 µM"}, "[9]": {"conditions": "second compound 0.316 µM, first compound 0.00316 µM"}, "[10]": {"conditions": "second compound 0.316 µM, first compound 0.01 µM"}, "[11]": {"conditions": "second compound 0.316 µM, first compound 0.0316 µM"}, "[12]": {"conditions": "second compound 0.316 µM, first compound 0.1 µM"}, "[13]": {"conditions": "second compound 1 µM, first compound 0.00316 µM"}, "[14]": {"conditions": "second compound 1 µM, first compound 0.01 µM"}, "[15]": {"conditions": "second compound 1 µM, first compound 0.0316 µM"}, "[16]": {"conditions": "second compound 1 µM, first compound 0.1 µM"}, "[17]": {"conditions": "second compound 3.16 µM, first compound 0.00316 µM"}, "[18]": {"conditions": "second compound 3.16 µM, first compound 0.01 µM"}, "[19]": {"conditions": "second compound 3.16 µM, first compound 0.0316 µM"}, "[20]": {"conditions": "second compound 3.16 µM, first compound 0.1 µM"}, "[21]": {"conditions": "second compound 10 µM, first compound 0.00316 µM"}, "[22]": {"conditions": "second compound 10 µM, first compound 0.01 µM"}, "[23]": {"conditions": "second compound 10 µM, first compound 0.0316 µM"}, "[24]": {"conditions": "second compound 10 µM, first compound 0.1 µM"}}, "data": [{"molecule": "CCc1c2c(nc3ccc(O)cc13)-c1cc3c(c(=O)n1C2)COC(=O)[C@]3(O)CC", "note": "+ CN1CCN(c2cc(C(=O)Nc3cc4cc(-c5cnn(C)c5)ccc4cn3)ccn2)CC1;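 note: spheroids exposed to agents for seven days before reading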;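 for viability, T/C: 100% = DMSO vehicle control viability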", "values": [{"measurement": "IC50", "setting": "second compound 0.0316 µM", "value": "< 3.16", "unit": "nM"}, {"measurement": "IC50", "setting": "second compound 0.1 µM", "value": "< 3.16", "unit": "nM"}, {"measurement": "IC50", "setting": "second compound 0.316 µM", "value": "< 3.16", "unit": "nM"}, {"measurement": "IC50", "setting": "second compound 1 µM", "value": "< 3.16", "unit": "nM"}, {"measurement": "IC50", "setting": "second compound 3.16 µM", "value": "< 3.16", "unit": "nM"}, {"measurement": "IC50", "setting": "second compound 10 µM", "value": "< 3.16", "unit": "nM"}, {"measurement": "viability, T/C", "setting": "[1]", "value": 46.2, "unit": "%"}, {"measurement": "viability, T/C", "setting": "[2]", "value": 34.1, "unit": "%"}, {"measurement": "viability, T/C", "setting": "[3]", "value": 28.7, "unit": "%"}, {"measurement": "viability, T/C", "setting": "[4]", "value": 25.2, "unit": "%"}, {"measurement": "viability, T/C", "setting": "second compound 0.0316 µM, first compound 0.316 µM", "value": 17.5, "unit": "%"}, {"measurement": "viability, T/C", "setting": "second compound 0.0316 µM, first compound 1 µM", "value": 6.45, "unit": "%"}, {"measurement": "viability, T/C", "setting": "[5]", "value": 35.9, "unit": "%"}, {"measurement": "viability, T/C", "setting": "[6]", "value": 30.1, "unit": "%"}, {"measurement": "viability, T/C", "setting": "[7]", "value": 21.9, "unit": "%"}, {"measurement": "viability, T/C", "setting": "[8]", "value": 17.5, "unit": "%"}, {"measurement": "viability, T/C", "setting": "second compound 0.1 µM, first compound 0.316 µM", "value": 14.5, "unit": "%"}, {"measurement": "viability, T/C", "setting": "second compound 0.1 µM, first compound 1 µM", "value": 5.83, "unit": "%"}, {"measurement": "viability, T/C", "setting": "[9]", "value": 14.8, "unit": "%"}, {"measurement": "viability, T/C", "setting": "[10]", "value": 12.7, "unit": "%"}, {"measurement": "viability, T/C", "setting": "[11]", "value": 10.8, "unit": "%"}, {"measurement": "viability, T/C", "setting": "[12]", "value": 4, "unit": "%"}, {"measurement": "viability, T/C", "setting": "second compound 0.316 µM, first compound 0.316 µM", "value": 2.32, "unit": "%"}, {"measurement": "viability, T/C", "setting": "second compound 0.316 µM, first compound 1 µM", "value": 1.82, "unit": "%"}, {"measurement": "viability, T/C", "setting": "[13]", "value": 1.37, "unit": "%"}, {"measurement": "viability, T/C", "setting": "[14]", "value": 1.13, "unit": "%"}, {"measurement": "viability, T/C", "setting": "[15]", "value": 0.98, "unit": "%"}, {"measurement": "viability, T/C", "setting": "[16]", "value": 1.39, "unit": "%"}, {"measurement": "viability, T/C", "setting": "second compound 1 µM, first compound 0.316 µM", "value": 1.84, "unit": "%"}, {"measurement": "viability, T/C", "setting": "second compound 1 µM, first compound 1 µM", "value": 2.32, "unit": "%"}, {"measurement": "viability, T/C", "setting": "[17]", "value": 1.13, "unit": "%"}, {"measurement": "viability, T/C", "setting": "[18]", "value": 0.69, "unit": "%"}, {"measurement": "viability, T/C", "setting": "[19]", "value": 1.06, "unit": "%"}, {"measurement": "viability, T/C", "setting": "[20]", "value": 1.74, "unit": "%"}, {"measurement": "viability, T/C", "setting": "second compound 3.16 µM, first compound 0.316 µM", "value": 1.87, "unit": "%"}, {"measurement": "viability, T/C", "setting": "second compound 3.16 µM, first compound 1 µM", "value": 2.05, "unit": "%"}, {"measurement": "viability, T/C", "setting": "[21]", "value": 0.09, "unit": "%"}, {"measurement": "viability, T/C", "setting": "[22]", "value": 0.16, "unit": "%"}, {"measurement": "viability, T/C", "setting": "[23]", "value": 0.24, "unit": "%"}, {"measurement": "viability, T/C", "setting": "[24]", "value": 0.19, "unit": "%"}, {"measurement": "viability, T/C", "setting": "second compound 10 µM, first compound 0.316 µM", "value": 0.31, "unit": "%"}, {"measurement": "viability, T/C", "setting": "second compound 10 µM, first compound 1 µM", "value": 0.19, "unit": "%"}]}, {"molecule": "Cn1ncnc1[C@H]1c2n[nH]c(=O)c3cc(F)cc(c23)N[C@@H]1c1ccc(F)cc1", "note": "+ CN1CCN(c2cc(C(=O)Nc3cc4cc(-c5cnn(C)c5)ccc4cn3)ccn2)CC1", "values": [{"measurement": "IC50", "setting": "second compound 0.0316 µM", "value": "> 100", "unit": "nM"}, {"measurement": "IC50", "setting": "second compound 0.1 µM", "value": 1.71, "unit": "nM"}, {"measurement": "IC50", "setting": "second compound 0.316 µM", "value": "< 0.316", "unit": "nM"}, {"measurement": "IC50", "setting": "second compound 1 µM", "value": "< 0.316", "unit": "nM"}, {"measurement": "IC50", "setting": "second compound 3.16 µM", "value": "< 0.316", "unit": "nM"}, {"measurement": "IC50", "setting": "second compound 10 µM", "value": "< 0.316", "unit": "nM"}, {"measurement": "viability, T/C", "setting": "second compound 0.0316 µM, first compound 0.000316 µM", "value": 80.5, "unit": "%"}, {"measurement": "viability, T/C", "setting": "second compound 0.0316 µM, first compound 0.001 µM", "value": 71, "unit": "%"}, {"measurement": "viability, T/C", "setting": "[1]", "value": 61.8, "unit": "%"}, {"measurement": "viability, T/C", "setting": "[2]", "value": 65.4, "unit": "%"}, {"measurement": "viability, T/C", "setting": "[3]", "value": 84.7, "unit": "%"}, {"measurement": "viability, T/C", "setting": "[4]", "value": 60.3, "unit": "%"}, {"measurement": "viability, T/C", "setting": "second compound 0.1 µM, first compound 0.000316 µM", "value": 54.1, "unit": "%"}, {"measurement": "viability, T/C", "setting": "second compound 0.1 µM, first compound 0.001 µM", "value": 48.5, "unit": "%"}, {"measurement": "viability, T/C", "setting": "[5]", "value": 50.8, "unit": "%"}, {"measurement": "viability, T/C", "setting": "[6]", "value": 43.5, "unit": "%"}, {"measurement": "viability, T/C", "setting": "[7]", "value": 50.1, "unit": "%"}, {"measurement": "viability, T/C", "setting": "[8]", "value": 42.8, "unit": "%"}, {"measurement": "viability, T/C", "setting": "second compound 0.316 µM, first compound 0.000316 µM", "value": 21.2, "unit": "%"}, {"measurement": "viability, T/C", "setting": "second compound 0.316 µM, first compound 0.001 µM", "value": 23.4, "unit": "%"}, {"measurement": "viability, T/C", "setting": "[9]", "value": 18.8, "unit": "%"}, {"measurement": "viability, T/C", "setting": "[10]", "value": 17.7, "unit": "%"}, {"measurement": "viability, T/C", "setting": "[11]", "value": 18.8, "unit": "%"}, {"measurement": "viability, T/C", "setting": "[12]", "value": 17.2, "unit": "%"}, {"measurement": "viability, T/C", "setting": "second compound 1 µM, first compound 0.000316 µM", "value": 1.28, "unit": "%"}, {"measurement": "viability, T/C", "setting": "second compound 1 µM, first compound 0.001 µM", "value": 1.4, "unit": "%"}, {"measurement": "viability, T/C", "setting": "[13]", "value": 1.52, "unit": "%"}, {"measurement": "viability, T/C", "setting": "[14]", "value": 1.16, "unit": "%"}, {"measurement": "viability, T/C", "setting": "[15]", "value": 1.67, "unit": "%"}, {"measurement": "viability, T/C", "setting": "[16]", "value": 1.12, "unit": "%"}, {"measurement": "viability, T/C", "setting": "second compound 3.16 µM, first compound 0.000316 µM", "value": 0.67, "unit": "%"}, {"measurement": "viability, T/C", "setting": "second compound 3.16 µM, first compound 0.001 µM", "value": 0.66, "unit": "%"}, {"measurement": "viability, T/C", "setting": "[17]", "value": 0.75, "unit": "%"}, {"measurement": "viability, T/C", "setting": "[18]", "value": 0.62, "unit": "%"}, {"measurement": "viability, T/C", "setting": "[19]", "value": 0.71, "unit": "%"}, {"measurement": "viability, T/C", "setting": "[20]", "value": 0.48, "unit": "%"}, {"measurement": "viability, T/C", "setting": "second compound 10 µM, first compound 0.000316 µM", "value": 0.16, "unit": "%"}, {"measurement": "viability, T/C", "setting": "second compound 10 µM, first compound 0.001 µM", "value": 0.26, "unit": "%"}, {"measurement": "viability, T/C", "setting": "[21]", "value": 0.15, "unit": "%"}, {"measurement": "viability, T/C", "setting": "[22]", "value": 0.25, "unit": "%"}, {"measurement": "viability, T/C", "setting": "[23]", "value": 0.18, "unit": "%"}, {"measurement": "viability, T/C", "setting": "[24]", "value": 0.17, "unit": "%"}]}]}
